Data taken from patent publication US6809112B2, “Method of treating sexual disturbances” (priority 1999, dated 2004).

**Q.** For `CN[C@@H]1Cc2cccc3[nH]c(=S)n(c23)C1.O=C(O)CC(O)C(=O)O`, which melting point is on record?
**A.** 195 to 196 °C
